Reference: ChEMBL document CHEMBL1201862, “PubChem BioAssay data set” (2004)
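Values below derive from 48-hour exposures of cells grown in 96-well plates, with endpoints linearly interpolated between the two concentrations bracketing the appropriate inhibition level. GI50 marks 50% less growth.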 The source made the active and inactive calls. Rule as the data show it: active = GI50 up to about 1.1 µM and inactive = higher.

Tests used:
Assay in all cases: NCI-60 cell line screen, 48 h
[1] = system: A498
[2] = system: ACHN
[3] = system: HOP-92
[4] = system: K562
[5] = system: LOX IMVI
[6] = system: MCF7
[7] = system: NCI-H226
[8] = system: NCI-H460
[9] = system: RPMI-8226
[10] = system: SF-295
[11] = system: SK-MEL-5
[12] = system: SW-620
[13] = system: UO-31
[14] = system: UACC-257
[15] = system: SR

Measured: GI50

O=C(N/N=C/C=C/c1ccc([N+](=O)[O-])o1)c1ccc(Br)s1
inactive: [1] 32.1 µM | [2] 16.3 µM | [3] 10.8 µM | [4] 24.5 µM | [5] 19.9 µM | [6] 16.3 µM | [7] 22.2 µM | [8] 42.7 µM | [9] 3.78 µM | [10] > 100 µM | [11] 18.6 µM | [12] 16.1 µM | [13] 21 µM

COC(=O)c1ccc(NCC2=C(Br)C(=O)C=CC2=O)cc1Cl
inactive: [1] > 100 µM | [2] 17 µM | [3] 15.6 µM | [4] 3.54 µM | [5] 14.9 µM | [6] 17 µM | [7] 74.8 µM | [8] 17.2 µM | [9] 40.3 µM | [10] 40.1 µM | [11] 20.1 µM | [12] 16 µM | [14] 23.8 µM | [13] 16.4 µM

CN1CC=C(c2cccn2C)CC1
inactive: [2] > 100 µM | [4] > 100 µM | [5] > 100 µM | [6] > 100 µM | [7] > 100 µM | [9] > 100 µM | [10] > 100 µM | [11] > 100 µM | [15] > 100 µM | [12] > 100 µM | [14] > 100 µM | [13] > 100 µM

CCSc1nc(N)c2c(-c3ccc(OC)c(OC)c3)c3c(nc2n1)CCCC3
inactive: [2] > 100 µM | [4] > 100 µM | [5] > 100 µM | [6] > 100 µM | [8] > 100 µM | [9] > 100 µM | [10] > 100 µM | [11] > 100 µM | [15] > 100 µM | [12] > 100 µM | [14] > 100 µM | [13] > 100 µM

COc1cc(CCCl)c(CC2=NCCc3cc(OC)c(OC)cc32)cc1OC
inactive: [2] > 100 µM | [3] > 100 µM | [4] 31 µM | [5] 21.1 µM | [6] 88.9 µM | [7] > 100 µM | [8] > 100 µM | [9] 39.4 µM | [10] 19.8 µM | [11] 67.8 µM | [15] 23 µM | [12] 85.5 µM | [14] > 100 µM | [13] 69.3 µM

CCP(=O)(CC)C(Cl)Cl
inactive: [2] > 100 µM | [3] > 100 µM | [4] > 100 µM | [5] > 100 µM | [6] > 100 µM | [7] > 100 µM | [8] > 100 µM | [9] > 100 µM | [10] > 100 µM | [11] > 100 µM | [15] > 100 µM | [12] > 100 µM | [14] > 100 µM | [13] > 100 µM

Cc1c(OCc2ccccc2)c(=O)ccn1CCc1c[nH]c2ccccc12
inactive: [2] > 100 µM | [3] 14.4 µM | [5] 44.6 µM | [6] 18.5 µM | [8] 33.7 µM | [9] 31.9 µM | [10] 56.4 µM | [11] 18.3 µM | [15] 27.6 µM | [12] 36.1 µM | [14] 73.8 µM | [13] 43.1 µM

CCOC(=O)c1c(-c2ccccc2)c(C)cn1C
inactive: [2] > 10 µM | [3] > 10 µM | [4] > 10 µM | [7] > 10 µM | [8] > 10 µM | [10] > 10 µM | [15] > 10 µM | [14] > 10 µM | [13] > 10 µM

C=C1OC(=O)[C@]2([C@@H](/C=C/C)C=CC(=O)[C@H]2O)[C@@H]1O
inactive: [2] > 100 µM | [4] > 100 µM | [5] > 100 µM | [6] > 100 µM | [7] > 100 µM | [8] > 100 µM | [9] > 100 µM | [10] > 100 µM | [11] > 100 µM | [15] 73.6 µM | [12] > 100 µM | [14] > 100 µM | [13] > 100 µM

CCCCCc1cccc(=O)o1
inactive: [1] 57.9 µM | [2] > 100 µM | [3] 44.2 µM | [4] > 100 µM | [5] > 100 µM | [6] > 100 µM | [7] > 100 µM | [8] > 100 µM | [9] > 100 µM | [10] > 100 µM | [11] > 100 µM | [12] > 100 µM | [14] > 100 µM | [13] > 100 µM

COP(=O)(OC)[C@H](O)[C@H]1C[C@@H]1c1ccccc1
inactive: [1] > 100 µM | [2] > 100 µM | [3] 17.4 µM | [4] > 100 µM | [5] > 100 µM | [6] > 100 µM | [7] > 100 µM | [8] > 100 µM | [9] > 100 µM | [10] > 100 µM | [11] > 100 µM | [12] > 100 µM | [14] > 100 µM | [13] > 100 µM
